Drawing on the OPERA property sets (Mansouri et al. 2018), this text covers logP and solubility for 65 compounds.

Values after ≈ are worked out from the molar mass of the structure shown. Where a SMILES comes first, the peptide text is derived from it. The star is where a group is joined. NHtBu = CC(C)(C)N*

On to `Cn1c(CC(=O)O)cnc1C(=O)c1ccc([N+](=O)[O-])cc1`, for which the logP amounted to 0.86. On the same count and under the same terms, then `CC(C)N(C(=O)SCC(Cl)=CCl)C(C)C`, with 4.49; and `CCCCOC(=O)c1ccccc1O`, with 4.63; and `CCCC(CCC)=NNC(=N)N`, with 1.73.

On to `CCCCN(C)N=O`, for which the lipophilicity (logP) is 1.08. The same measure, in the same setting: under `CCC(=O)OC1(c2ccccc2)CCN(C)CC1CC` (stereo unspecified) stands 3.61; under `Cc1cn(C2CC(O)C(CO)O2)c(=O)[nH]c1=S` (stereo unspecified), -0.07; under `CC=O`, -0.34.

`COCCn1cnc2[nH]c(=O)n(C)c(=N)c21` had a logP of -1.49.

`O=[N+]([O-])c1cc(C(F)F)c(Nc2ncc(C(F)(F)F)cc2Cl)c([N+](=O)[O-])c1` registered a logP of 3.52. For the compound `CCOC(=O)OCn1ncc2c(O)ncnc21`, the log partition coefficient (logP) is 0.21. In turn, `Clc1cccc2c(Cl)cccc12` gave a lipophilicity (logP) of 4.67 and a solubility of 1.92 µM (≈ 0.379 µg/mL). Consider `CSc1nc2ccccc2s1`, for which the log partition coefficient (logP) was 3.15. `ClC=C1C2C(Cl)C(Cl)C(C2Cl)C1(CCl)CCl` (stereo unspecified) yielded a logP of 5.35. Compound `ClC1=C(Cl)C2(Cl)C(Cl)=C(Cl)C3CC1C(Cl)C32` (stereo unspecified) came in with a logP of 5.66. The compound `CCCCOC(=O)c1ccccc1C(=O)OCc1ccccc1` had a logP of 4.73.

For the compound `CN(C)C(=O)COC(=O)c1ccccc1O`, the logP was 1.21.

Take `CC1=CC(=O)C(C)=C(C)C1=O`: the logP came to 1.82. Same read-out and setting: under `Nc1ncnc2c1ncn2C1OC2COP(=O)(OCc3ccccc3)OC2C1O` (stereo unspecified) stands 1.15; under `Cc1cccc(C)c1NC(=O)c1cc(S(N)(=O)=O)c(Cl)cc1O`, 2.19. As for `Nc1nc(=O)n([C@H]2CC[C@@H](CO)O2)cc1F`, the lipophilicity (logP) is -1.09. Compound `COC1=C(OC)C(=O)C(C)=CC1=O` gave a log partition coefficient (logP) of 0.8. Same read-out and setting: under `OC(CN1C2CCCCC21)Cn1ccnc1` (stereo unspecified) stands 1.07; under `O=[N+]([O-])c1ccc(Oc2c(Cl)cc(Cl)cc2Cl)cc1`, 4.97; under `CC1CCc2cc(F)cc3c(=O)c(C(=O)O)cn1c23` (stereo unspecified), 1.6. As for `CCOCCOCCOCC`, the lipophilicity (logP) was 0.39. Turning to `COc1ccc2cc(CCC(C)=O)ccc2c1`, the logP amounted to 3.08.

`CSc1ccc2oc(N(N)CCC#N)nc2c1` came in with a lipophilicity (logP) of 1.5. With `Cc1cc(OCCNCC2CC(=O)c3ccccc3C2=O)c(C(C)C)cc1O` (stereo unspecified), the logP stood at 4.25. Compound `ClC1=C(Cl)C2(Cl)C3C(Cl)C(Cl)(Cl)CC3C1(Cl)C2(Cl)Cl` (stereo unspecified) showed a lipophilicity (logP) of 6.2.

Compound `CNS(=O)(=O)Cc1ccc2[nH]cc(CCN(C)C)c2c1` gave a lipophilicity (logP) of 0.93. The same measure, in the same setting: then `CC(C)(C)[N+]([O-])=Cc1ccc(F)cc1`, with 1.42; and `N#CC(C#N)=Cc1ccc(Br)o1`, with 2.16. On the same count and under the same terms, under `NC(=O)NCCCn1nc(-c2ccccc2)ccc1=O` stands 0.69; under `CCCCCOC(=O)c1ccccc1C(=O)OCCCCC`, 5.62; under `CCn1ccc(=O)c(O)c1C`, -0.31. Still for that read-out and setting: then `Cc1ccc(CN)cc1`, with 1.46; and `CCCCN(CC)N=O`, with 1.63; and `CC(=O)NC(C)C(=O)NC(CCC(=O)O)C(=O)NC(C)(C)C` (stereo not drawn) (Ac-Ala-Glu-NHtBu; configuration not given here), with -0.67. Compound `CC(=O)NCCc1ccccc1` came in with a log partition coefficient (logP) of 1.19. On the same count and under the same terms, then `CN1C(=O)CC(=O)N(c2ccccc2)c2cc(Cl)ccc21`, with 2.12. Regarding `COCCCNc1nc(NCCCOC)nc(SC)n1`, the solubility turned out to be 332 µM (≈ 100 µg/mL). Compound `Brc1cccc(O[Si]23OCCN(CCO2)CCO3)c1` gave a log partition coefficient (logP) of 0.26. Same read-out and setting: then `C[Si]1(C)O[Si](C)(C)O[Si](C)(C)O[Si](C)(C)O[Si](C)(C)O1`, with 8.03; and `COCCn1cnc2c(=N)n(C)c(=O)[nH]c21`, with -0.96. Still for that read-out and setting: then `N=c1cc2n(-c3ccc(Cl)cc3)c3ccccc3nc-2cc1Nc1ccc(Cl)cc1`, with 6.47; and `CC(=O)OCN1C(=O)c2cccc3cccc(c23)C1=O`, with 2.34; and `CC(O)C#N` (stereo unspecified), with -0.94. As to `Cc1nc(NCC(C)O)c(C#N)cc1-c1ccccc1` (stereo unspecified), the logP was 2.72. Still for that read-out and setting: under `N#Cc1c(Cl)c(Cl)c(Cl)c(C#N)c1Cl` stands 3.05; under `Cc1cnc2c(C(=O)O)c(Cl)ccc2c1`, 0.78. The same measure, in the same setting: then `COCC(C)OC(C)=O` (stereo unspecified), with 0.56; and `C[C@H](CCC(=O)NCC(=O)O)[C@H]1CC[C@H]2[C@@H]3[C@H](O)C[C@@H]4C[C@H](O)CC[C@]4(C)[C@H]3C[C@H](O)[C@]12C`, with 1.65; and `CC(C)CN=C=S`, with 2.82. Still for that read-out and setting: then `CC(C)OC(C)(C)C`, with 2.14; and `CC(O)CNc1ccccc1C(N)=O` (stereo unspecified), with 0.62; and `O=c1[nH]c(=O)n([C@H]2C[C@H](O)[C@@H](CO)O2)cc1I`, with -0.96. Regarding `N[C@@H](Cc1ccc(O)c(O)c1)C(=O)OCCOc1ccccc1`, the logP stood at 1.51. On to `Nc1ccc(Cc2ccc(N)c(Cl)c2)cc1Cl`, for which the solubility came out at 52 µM (≈ 13.9 µg/mL). With `N[C@@H](CSSC[C@H](N)C(=O)O)C(=O)O`, the logP was -5.08. As for `c1ccc2c(c1)ccc1ccccc12`, the solubility was 6.45 µM (≈ 1.15 µg/mL). The compound `C=CCCCCCCCC` displayed a logP of 5.7. Still for that read-out and setting: under `CC(=O)Oc1ccc(OCCN(C)C)cc1C` stands 1.64. On the same count and under the same terms, under `CCCC[N+](C)(CCCC)CCCC.[I-]` stands 0.26. The same measure, in the same setting: then `O=C(Nc1ccc(Cl)cc1)c1cccc([N+](=O)[O-])c1O`, with 2.16.

In general, logP refers to the decadic logarithm of the partition coefficient of the neutral form, usually between octanol and water. Lower therefore signals a more hydrophilic compound. One may read the solubility as the dissolved amount per volume that the medium holds. Low values mean little dissolved substance, high ones much dissolved substance.
